How the values were obtained:
Format in all cases: in vivo
Amaranthus retroflexus = experiment: Herbicidal post-emergence action, AMARE; conditions: 320 g/ha
Excerpt: (§1) • Seeds of monocotyledonous and dicotyledonous weed plants and crop plants are placed in wood-fiber pots in sandy loam and covered with soil. The test compounds, formulated in the form of wettable powders (WP) or emulsion concentrates (EC), are then, as an aqueous suspension with a water application rate of 600-800 l/ha (converted), with 0.1-0.2% of wetting agent added, applied at various dosages to the surface of the covering soil. • After the treatment, the pots are placed in a greenhouse and kept under good growth conditions for the test plants. […] Herbicidal Post-Emergence Action (Post) • Seeds of monocotyledonous and dicotyledonous weed and crop plants are placed in sandy loam in wood-fiber pots, covered with soil and cultivated in a greenhouse under good growth conditions. 2-3 weeks (stages 10-13 according to the BBCH scale) after sowing, the test plants are treated at a height of 5-10 cm. The test compounds, formulated as wettable powders (WP) or emulsion concentrates (EC), are then, with a water application rate of 600-800 l/ha (converted), with 0.1-0.2% of wetting agent added, sprayed at various dosages onto the green parts of the plants. […]

Avena sativa = experiment: Herbicidal post-emergence action, AVESA; conditions: 320 g/ha
Excerpt: as §1

Myzus persicae = experiment: Myzus test (MYZUPE spray treatment); conditions: application rate 500 g/ha, after 5 days, Chinese cabbage leaf discs
Method: Myzus Test (MYZUPE Spray Treatment) [table] To produce a suitable preparation of active compound, 1 part by weight of active compound is mixed with the stated amount of solvent and emulsifier, and the concentrate is diluted with emulsifier-containing water to the desired concentration. Discs of Chinese cabbage (Brassica pekinensis) infected by all stages of the green peach aphid (Myzus persicae) are sprayed with an active compound preparation of the desired concentration. After 5 days, the effect in % is determined 100% means that all of the aphids have been killed; 0% means that none of the aphids have been killed. Myzus Test (MYZUPE Spray Treatment) To produce a suitable preparation of active compound, 1 part by weight of active compound is mixed with the stated amount of solvent and emulsifier, and the concentrate is diluted with emulsifier-containing water to the desired concentration. Discs of Chinese cabbage (Brassica pekinensis) infected by all stages of the green peach aphid (Myzus persicae) are sprayed with an active compound preparation of the desired concentration. After the desired period of time, the activity in % is determined. 100% means that all of the aphids have been killed; 0% means that none of the aphids have been killed.

Lolium multiflorum [1] = experiment: Herbicidal post-emergence action, LOLMU
Method: (§2) 2. Herbicidal Post-Emergence Action
(§3) • Seeds of monocotyledonous and dicotyledonous weed and crop plants are placed in sandy loam in wood-fiber pots, covered with soil and cultivated in a greenhouse under good growth conditions. 2 to 3 weeks after sowing, the test plants are treated at the one-leaf stage. The test compounds, formulated as wettable powders (WP), are then, with a water application rate of 600 l/ha (converted), with 0.2% of wetting agent added, sprayed at various dosages onto the green parts of the plants. After the test plants have been kept in the greenhouse under optimum growth conditions for about 3 weeks, the activity of the preparations is rated visually in comparison to untreated controls (herbicidal activity in percent: 100% activity=the plants have died, 0% activity=like control plants). • In addition to the compounds mentioned above, the following compounds show an activity of 90-100% against Alopecurus myosuroides, Avena fatua, Digitaria sanguinalis, Echinocloa crus-galli, Lolium multiflorum, Setaria viridis and Sorghum halapense when applied by the post-emergence method at 320 g/ha: I-a-2, I-a-4, I-a-5, I-a-7, I-a-9, I-a-10, I-a-11, I-a-12, I-a-13, I-a-15. • In addition to the compounds mentioned above, the following compounds show an activity of 90-100% against Alopecurus myosuroides, Avena fatua, Echinocloa crus-galli, Lolium multiflorum and Setaria viridis when applied by the post-emergence method at 80 g/ha: I-a-1, I-b-2.
(§4) • Seeds of monocotyledonous and dicotyledonous weed plants and crop plants are placed in wood-fiber pots in sandy loam and covered with soil. The test compounds, formulated in the form of wettable powders (WP) or emulsion concentrates (EC), are then, as an aqueous suspension with a water application rate of 600-800 l/ha (converted), with 0.1-0.2% of wetting agent added, applied at various dosages to the surface of the covering soil. • After the treatment, the pots are placed in a greenhouse and kept under good growth conditions for the test plants. […] Herbicidal Post-Emergence Action (Post) • Seeds of monocotyledonous and dicotyledonous weed and crop plants are placed in sandy loam in wood-fiber pots, covered with soil and cultivated in a greenhouse under good growth conditions. 2-3 weeks (stages 10-13 according to the BBCH scale) after sowing, the test plants are treated at a height of 5-10 cm. The test compounds, formulated as wettable powders (WP) or emulsion concentrates (EC), are then, with a water application rate of 600-800 l/ha (converted), with 0.1-0.2% of wetting agent added, sprayed at various dosages onto the green parts of the plants.
(§5) AVEFA: Avena fatua LOLMU: Lolium multiflorum SETVI: Setaria viridis CHEAL: Chenopodium album VIOTR: Viola tricolor VERPE: Veronica persica ORYSA: Oryza sativa TRZAS: Triticum aestivum ZEAMX: Zea mays ALOMY: Alopecurus myosuroides DIGSA: Digitaria sanguinalis ECHCG: Echinocloa crus-galli SORHA: Sorghum halepense AVESA: Avena sativa AMARE: Amaranthus retroflexus SINAL: Sinapis alba STEME: Stellaria media

Setaria viridis [2] = experiment: Herbicidal post-emergence action, SETVI
Method: as §2, §3, §4, §5

Sinapis alba = experiment: Herbicidal post-emergence action, SINAL; conditions: 320 g/ha
Excerpt: as §1

Stellaria media = experiment: Herbicidal post-emergence action, STEME; conditions: 320 g/ha
Excerpt: as §1

Avena fatua [3] = experiment: Herbicidal pre-emergence action, AVEFA; conditions: Avena fatua, pre-emergence
Excerpt: (§6) 1. Herbicidal Pre-Emergence Action
(§7) • Seeds of monocotyledonous and dicotyledonous weed plants and crop plants are placed in wood-fiber pots in sandy loam and covered with soil. The test compounds, formulated in the form of wettable powders (WP), are then, as an aqueous suspension with a water application rate of 600 l/ha (converted), with 0.2% of wetting agent added, applied at various dosages to the surface of the covering soil. • After the treatment, the pots are placed in a greenhouse and kept under good growth conditions for the test plants. The visual assessment of the damage to the test plants is carried out after a trial period of about 3 weeks by comparison with untreated controls (herbicidal activity in percent: 100% activity=the plants have died, 0% activity=like control plants). • In addition to the compounds mentioned above, the following compounds show an activity of 90-100% against Alopecurus myosuroides, Digitaria sanguinalis, Echinocloa crus-galli, Lolium multiflorum, Setaria viridis and Sorghum halapense when applied by the pre-emergence method at 320 g/ha of a.i.: I-a-2, I-a-10, I-a-11, I-a-12.
(§8) 1. Herbicidal Pre-Emergence Action (Pre)
(§9) • Seeds of monocotyledonous and dicotyledonous weed plants and crop plants are placed in wood-fiber pots in sandy loam and covered with soil. […]

Viola tricolor = experiment: Herbicidal pre-emergence action, VIOTR; conditions: Viola tricolor, pre-emergence
Excerpt: as §8, §1

Setaria viridis [4] = experiment: Herbicidal pre-emergence action, SETVI; conditions: Setaria viridis, pre-emergence, 320 g/ha
Excerpt: as §6, §7, §8, §4, §5

Veronica persica [5] = experiment: Herbicidal pre-emergence action, VERPE; conditions: Veronica persica, pre-emergence
Excerpt: as §8, §1

Lolium multiflorum [6] = experiment: Herbicidal pre-emergence action, LOLMU; conditions: Lolium multiflorum, pre-emergence
Excerpt: as §6, §7, §8, §9

Chenopodium album = experiment: Herbicidal pre-emergence action, CHEAL; conditions: Chenopodium album, pre-emergence
Excerpt: as §8, §1

Alopecurus myosuroides = experiment: Herbicidal post-emergence action, ALOMY; conditions: Alopecurus myosuroides, post-emergence, 80 g/ha
Method: as §2, §3, §4, §5

Veronica persica [7] = experiment: Herbicidal post-emergence action, VERPE; conditions: Veronica persica, post-emergence
Excerpt: as §1

Avena fatua [8] = experiment: Herbicidal post-emergence action, AVEFA; conditions: Avena fatua, post-emergence, 80 g/ha
Method: as §2, §3, §4, §5

Echinocloa crus-galli = experiment: Herbicidal post-emergence action, ECHCG; conditions: Echinochloa crus-galli, post-emergence, 80 g/ha
Method: as §2, §3, §4, §5

Sorghum halepense = experiment: Herbicidal post-emergence action, SORHA; conditions: Sorghum halepense, post-emergence
Method: as §2, §3, §4, §5

Triticum aestivum = experiment: Herbicidal post-emergence action, TRZAS; conditions: Triticum aestivum, post-emergence, 80 g/ha
Excerpt: as §4, §5

Oryza sativa = experiment: Herbicidal post-emergence action, ORYSA; conditions: Oryza sativa, post-emergence, 80 g/ha
Excerpt: as §4, §5

Digitaria sanguinalis = experiment: Herbicidal post-emergence action, DIGSA; conditions: Digitaria sanguinalis, post-emergence, 80 g/ha
Method: as §2, §3, §4, §5

Zea mays = experiment: Herbicidal post-emergence action, ZEAMX; conditions: Zea mays, post-emergence, 80 g/ha
Excerpt: as §4, §5

What does the source list for CCc1cc(Cl)cc(OC)c1C1=C(OC(=O)C(C)(C)C)NC2(CCC(OC)CC2)C1=O (stereo not drawn) [I-a-9]?
% Activity AMARE (Amaranthus retroflexus): 40%; % Activity AVESA (Avena sativa): 90%; effect in % (aphids killed) (Myzus persicae): 80%; % Activity LOLMU (Lolium multiflorum [1]; 320 g/ha): 100%; % Activity SETVI (Setaria viridis [2]; 320 g/ha): 100%; % Activity SINAL (Sinapis alba): 60%; % Activity STEME (Stellaria media): 40%

How did the inhibition at 320 g/ha (Avena fatua [3]) turn out when CCc1cc(Cl)cc(Cl)c1C1=C(OC(=O)C(C)(C)C)C2(CCC(C)CC2)NC1=O (stereo not drawn) [I-b-12 known from WO 04/065366] was run?
The inhibition at 320 g/ha was 0%.

And the inhibition at 320 g/ha (Viola tricolor)?
The inhibition at 320 g/ha was 0%.

And the inhibition at 320 g/ha (Setaria viridis [4])?
The inhibition at 320 g/ha was 40%.

What about the inhibition at 320 g/ha (Veronica persica [5]) of the same compound?
The inhibition at 320 g/ha was 0%.

What about the inhibition at 320 g/ha (Lolium multiflorum [6]) of the same compound?
The inhibition at 320 g/ha was 40%.

And the inhibition at 320 g/ha (Chenopodium album)?
The inhibition at 320 g/ha was 0%.

What does the source list for CCc1cccc(Cl)c1C1=C(OC(=O)C(C)(C)C)C2(CCC(C)CC2)NC1=O (stereo not drawn) [I-b-12 known from WO 04/065366]?
inhibition at 80 g/ha (Alopecurus myosuroides): 0%; inhibition at 80 g/ha (Veronica persica [7]): 0%; inhibition at 80 g/ha (Avena fatua [8]): 0%; inhibition at 80 g/ha (Echinocloa crus-galli): 40%; inhibition at 80 g/ha (Sorghum halepense): 0%; inhibition at 80 g/ha (Triticum aestivum): 0%; inhibition at 80 g/ha (Oryza sativa): 0%; inhibition at 80 g/ha (Lolium multiflorum [1]; Lolium multiflorum, post-emergence, 80 g/ha): 0%; inhibition at 80 g/ha (Setaria viridis [2]; Setaria viridis, post-emergence, 80 g/ha): 30%; inhibition at 80 g/ha (Digitaria sanguinalis): 30%; inhibition at 80 g/ha (Zea mays): 0%
